Drawing on a melting point compilation (Tetko et al.; mined from patent text by program, amines drawn as free bases though some values may be those of a salt), this text covers melting point for 86 compounds.

As a reminder, the melting point is the temperature, or range, at which the solid turns liquid.

Bounds are passed on as bounds.

`CN1c2ccc(Cl)cc2C(c2ccccc2)=Nc2cccnc21` registered a melting point of 153 to 156 °C. With `COc1ccc(S(=O)(=O)N2C(=O)C(OC(=O)N3CCN(c4ccncc4)CC3)(c3ccccc3OC(C)C)c3cc(Cl)ccc32)c(OC)c1` (stereo unspecified) the figure was 160 to 164 °C. With `CC(=O)OC1CCC2(C)C(=CCC3C2CCC2(C)C(n4nccn4)=C(C=O)CC32)C1` (stereo unspecified) the figure was 145 to 148 °C; with `COc1cc2c3c(sc2c(Cl)c1Cl)CCCC3`, 123 to 125 °C; with `CC(C)C[C@H](N)C(=O)NCCNC(=O)OCc1ccccc1`, 148 to 149 °C.

Compound `CC(C)(C)OC(=O)Nc1sc(-c2cccnc2)nc1C(F)(F)F` displayed a melting point of 145 to 147 °C. Under `COc1ccc(C(=O)Oc2ccc(O)cc2)cc1C12CC3CC(CC(C3)C1)C2` stands 236 to 237 °C; under `COc1cccc2c1C(CC(C)=O)NC2=O` (stereo unspecified), 176 to 178 °C. Take `CN(C)C(=O)N1CCC(Oc2c(F)c(F)c(F)c(F)c2F)(c2ccccc2)CC1`: the melting point fell in the range of 92 to 96 °C. Under `COc1ccc(CCNC(=O)C(N)=O)cc1OCCCCO` stands 47 to 49 °C; under `CCOC(=O)C1(C(=O)Nc2ccc(F)cc2F)CC1`, 79 to 80.5 °C. Under `Cn1cc(-c2ccccc2)c(=O)c(-c2ccc(-c3ccccc3)cc2)c1` stands 186 to 190 °C; under `Cc1ccc(COc2ccc3c(c2)c(C=CC(=O)O)cn3CC(=O)N(C)CCc2ccccc2)cc1`, 164 to 166 °C; under `CS(=O)(=O)Nc1ccc(F)cc1OCCCN1CCC(OC(c2ccccc2)c2ccccc2)CC1`, 52 to 56 °C.

Compound `CC(C)(C)c1nc2cc(N3CCCC3)c(N=C=S)cc2s1` returned a melting point of 89 to 90 °C. With `Cc1c(-c2cc(Cl)cc(Cl)c2)ccc2nc(N)nc(N)c12` the figure was greater than 250 °C; with `CC(C)(C)NCC(O)c1ccc(N)c(C#N)c1` (stereo unspecified), 181 to 185 °C; with `O=C1Nc2cccc(-c3cccs3)c2/C1=C/c1ccc[nH]1`, 213 to 214 °C. Compound `O=c1nc(N2CCN(c3ccc(Cl)cc3)CC2)sc2c([N+](=O)[O-])cc([N+](=O)[O-])cc12` showed a melting point of 178 to 180 °C. Under `CC(=O)NCC1CN(c2ccc(N3CCN(c4nc5cc(F)ccc5o4)CC3)c(F)c2)C(=O)O1` (stereo unspecified) stands 226 to 228 °C; under `N#CCCn1cccc1C1=CC(=O)c2ncccc2C1=O`, 166 to 167 °C; under `O=[N+]([O-])c1cc(Cl)c(Oc2ccccc2)c(Cl)c1Oc1ccccc1`, 164 °C. The compound `O=C(O)Cc1ccc(-c2ccc(F)cc2)c(F)c1` showed a melting point of 144 to 146 °C.

In turn, `CCC(=NOC)C(=NO)C(=O)NC` registered a melting point of 168 to 170 °C. For `Nc1ccc(NC(=O)C(=O)N2CCC(Cc3ccc(F)cc3)CC2)cc1`, the melting point is 141 to 143 °C. As for `NOCc1ccc2c(c1)-c1n[nH]c(=O)c3cccc(c13)O2`, the melting point fell in the range of 294 to 296 °C. With `O=C(Nc1ccc(C(=O)N2Cc3cccn3Cc3ccccc32)cc1)c1sc2ccccc2c1Cl` the figure was 220 to 222 °C; with `NNC(=O)C(F)(F)C(F)(F)C(F)(F)F`, 138 to 142 °C; with `COC(=O)c1cc2cc(C(=O)CN3CCN(c4ccncc4)CC3)ccc2o1`, 173 to 177 °C. Under `CCC(C)(C)c1cc(-c2c[nH]c(C=C3SC(N4CCOCC4)=NC3=O)c2)ccc1O` stands 314 °C.

The compound `N=C(N)c1ccc(C(=O)N[C@@H](Cc2ccccc2)C(=O)N2CCc3nn(CC(=O)O)cc3C2)cc1` had a melting point of 146 to 150 °C. `CSc1nc(C#N)c(I)c(C(F)(F)F)n1`: the melting point fell in the range of 68 to 69 °C. Under `NC(=O)N(O)CC1=NOC(c2ccc(F)cc2)C1` (stereo unspecified) stands 151 to 152 °C. Under `Nc1n[nH]c2c(C(F)(F)F)cccc12` stands 101 to 102 °C; under `COC(=O)c1cc(-c2ccccc2)sc1Nc1ccc(F)cc1[N+](=O)[O-]`, 150 °C. With `Oc1ccc(-c2nc3cc(O)c(Cl)cc3o2)cc1` the figure was 260 to 262 °C; with `Clc1cccc(C2=NOCCS2)c1`, 65 °C; with `CCOC(=O)c1ccc(C(=O)Nc2ccc3c(c2)N(C)C(=O)C(C)(C)C(=O)N3C)cc1`, greater than 270 °C.

For the compound `O=C(Cn1nc(-c2ccccc2O)nc1-c1ccccc1O)NCCOCCO`, the melting point was 173 to 174 °C. Under `CCOC(=O)C(C)OCC#Cc1nc(Cl)ccc1N` (stereo unspecified) stands 70 °C. With `COC(=O)c1ccccc1-c1nc(COc2ccc(CO)cc2OC)c(C)o1` the figure was 100 to 101 °C; with `O=C(O)C1Cc2c(ncn2CCC2CCCCC2)CN1C(=O)C(c1ccccc1)c1ccccc1` (stereo unspecified), 137 to 140 °C. With `O=C(OCCN1CCC(Nc2nc3ccccc3n2Cc2ccc(F)cc2)CC1)N1CCOCC1` the figure was 145 °C; with `CCCCCCCCCCCCCCCCCNC(=O)O[C@@H]1CCCO[C@H]1CO` (relative stereo), 84 to 86 °C; with `COc1ccc(Cn2c(S)nnc2C(N)=O)cc1`, 240 to 242 °C. `Cc1cc(-c2nnc3c4ccccc4c(OCc4ncn(C)n4)nn23)on1` registered a melting point of 270 to 272 °C. Under `COc1ccc(S(=O)(=O)N2CCc3cccc(-c4ccc(N)cc4)c32)cc1` stands 184 to 186 °C. Under `COC(=O)c1cc(-c2ccc(OC)c(Cl)c2)nn(CC=Cc2ccc(Cl)cc2)c1=O` stands 180 to 182 °C. Under `Clc1ccc(Nc2nnc(Cc3ccncc3)c3ccncc23)cc1` stands 220 to 221 °C. `O=C1C=C(c2ccc(Cl)c(Cl)c2)C(=O)O1` registered a melting point of 112 °C. With `CNC(=O)Cc1cccc2ccoc12` the figure was 138 to 142 °C. In the case of `CCCCNc1ccc(OC)c(Cl)c1Cl`, the melting point was 47 to 49 °C.

With `CCOC(=O)CCCOc1ccc(N2CCN(c3ccncc3)CC2)cc1`, the melting point fell in the range of 84 to 85 °C. With `O=c1cccc2c([N+](=O)[O-])cccc2n1` the figure was 139 to 141 °C. With `CCOC(=O)/C(C)=C/c1ccc(Br)cc1` the figure was 82 °C; with `COc1cc(N)c(Cl)cc1C(=O)NC1C2CCN(CC2)C1CN1CCCCC1` (stereo unspecified), 185 to 187 °C; with `C=C[C@@H]1CCC(=O)N1C(=O)[C@H](Cc1ccccc1)O[Si](C)(C)C(C)(C)C`, 92 to 93.5 °C. Under `COc1ccc(/C=C/C(=O)C2C(=O)CC(c3ccc(OC)cc3)C([N+](=O)[O-])C2c2ccc(OC)cc2)cc1` (stereo unspecified) stands 200 to 202 °C; under `C[C@H](c1ccccc1)N1C(=O)c2cccc([N+](=O)[O-])c2C1=O`, 115 to 117 °C; under `CN1Cc2c(-c3noc(CN)n3)ncn2-c2ccsc2C1=O`, 202 to 204 °C. Take `Cc1ccccc1C(Oc1cc(OCc2ccncc2)ccc1C#N)c1nnn[nH]1` (racemic): the melting point lay within 132 to 133 °C.

In turn, `CC[Si](CC)(Cc1ccc(N(c2ccccc2)c2ccccc2)cc1)Cc1ccc(N(c2ccccc2)c2ccccc2)cc1` had a melting point of 115 to 117 °C. Under `COc1ccc(C#N)c(ON=C(C)C)c1` stands 78 to 79 °C. `CCOC(=O)N1CCC(n2cnc(-c3ccc(F)cc3)c2-c2ccnc(NC)n2)CC1` displayed a melting point of 205 to 206 °C. Turning to `CCc1nc2c(C)cc(C)cc2n1-c1ccc(CCNC(=O)NS(=O)(=O)c2ccc(C)cc2)cc1`, the melting point fell in the range of 108 to 112 °C. Under `O=C(Nc1ccc([N+](=O)[O-])cc1)c1ccc(Nc2ccncc2)cc1` stands 298 to 302 °C. Under `O=C(NCCCO)c1cc2ccccc2[nH]1` stands 152 to 156 °C; under `CC(C)N1CCN(Cc2ccc(NC(=O)c3cccc4cc(Oc5cc(N)ncn5)ccc34)cc2C(F)(F)F)CC1`, 185 to 189 °C. Under `O=C1CCCN1CCCn1c(=O)[nH]c2ncc(-c3ccc(O)cc3)nc21` stands 305 to 306 °C; under `N#Cc1c(N2CCc3ccccc3CC2)nc(CO)n(CC(F)(F)F)c1=O`, 181 to 185 °C; under `CCCCCCCCCCCCC#CC(O)(CCCCC(=O)O)CCCCC(=O)O`, 65 to 66 °C. Compound `CCCOc1ccc(S(=O)(=O)N2CCC(C(=O)OCC)CC2)cc1-c1nc2cc(N)c(N)cc2c(=O)[nH]1` displayed a melting point of 197 to 199 °C. With `Cc1cc(C)c(N2c3ccccc3S(=O)(=O)c3ccccc32)c(C)c1` the figure was 242 to 246 °C; with `CCC(=O)Oc1cc(C(=O)c2c(Cl)cccc2Cl)c(C)cc1OC`, 142 to 145 °C. Under `CCOc1nn(-c2ccc(C(F)(F)F)cn2)cc1CCCOc1c(CCC(=O)O)cccc1OC` stands 87 to 88 °C; under `O=C(Nc1cc(Cl)ncn1)c1ccccc1SSc1ccccc1C(=O)Nc1cc(Cl)ncn1`, 254 to 256 °C; under `COc1cc(C=O)cc(OC)c1OC1OC(COC(C)=O)C(OC(C)=O)C(OC(C)=O)C1NC(C)=O` (stereo unspecified), 222 to 225 °C.

The compound `CCN(CC)CCN(CCN1CCCCC1)c1ccc(-c2nc3cc(Cl)c(Cl)cc3[nH]2)cc1` gave a melting point of 160 to 163 °C.

With `C#CCN(C)c1nccc(Oc2ccc(NC(=O)c3cc(F)cc(N4CCOCC4)c3)c3ccccc23)n1`, the melting point is 97 to 98 °C.

For the compound `Cc1ccncc1C(O)c1ccc2cc(CO)ccc2c1` (stereo unspecified), the melting point is 151 to 153 °C. Consider `O=[N+]([O-])c1cc(-c2cccc3ccccc23)c2nc(Cl)ccc2c1`, for which the melting point lay in the range of 224 to 225 °C. With `O=C(Oc1cc(-c2ccccc2)c2ccccc2n1)N1CCCCC1` the figure was 85 °C; with `CCOC(=O)C1=C(C)NC(CCn2ccnc2)=C(C(=O)OCC)C1c1ccccc1[N+](=O)[O-]` (stereo unspecified), 140 to 141 °C. Under `COC(=O)C1CC2(CN1C(=O)CN(C)CC(=O)C(Cc1ccccc1)NC(=O)c1ccccc1)SCCS2` (stereo unspecified) stands 60 to 62 °C; under `ClCc1cnn(-c2ccc(Cl)c(Cl)c2)c1`, 66 to 67 °C.

For `CCOC(=O)c1ccc(-c2ccc(-c3ccccc3)c(-c3cc4c(cc3O)C(C)(C)CCC4(C)C)c2)cc1`, the melting point worked out at 145 °C.
